According to patent US12318484B2 (priority 2016, dated 2025):

System: IL-1B, IL-8, TLR7 and TLR8 mRNA
Assay type: cell-based, ferrets
Conditions: 100 μM, ferret whole blood

CL075
IL-1B, IL-8, TLR7 and TLR8 mRNA: significant increases
